In the NIST ThermoML archive (doi:10.1021/je800330d):

Tests used:
[1] = mn = molality of the nth substance listed, in mol/kg; conditions: 101 kPa, Liquid, Capillary tube (Ostwald / Ubbelohde) method
[2] = xn = mol fraction of the nth substance listed; conditions: 101 kPa, Liquid, Capillary tube (Ostwald / Ubbelohde) method
[3] = 101 kPa, Liquid, Capillary tube (Ostwald / Ubbelohde) method

O=S(=O)([O-])[O-].O=S(=O)([O-])[O-].O=S(=O)([O-])[O-].[Al+3].[Al+3] [aluminum sulfate] + O
viscosity [mPa·s], [1]
Conditions	m1 = 0.0081	m1 = 0.0099	m1 = 0.0201	m1 = 0.0402	m1 = 0.0599	m1 = 0.0802	m1 = 0.1
298.15 K	0.904	0.908	0.927	0.967	1.008	1.05	1.093
308.15 K	0.729	0.732	0.747	0.777	0.807	0.839	0.87

N.N.O=S(=O)(O)O [ammonium sulfate] + O
viscosity [mPa·s], [1]
Conditions	m1 = 0.0081	m1 = 0.0099	m1 = 0.0201	m1 = 0.0402	m1 = 0.0599	m1 = 0.0802	m1 = 0.1
298.15 K	0.897	0.898	0.902	0.908	0.913	0.918	0.922
308.15 K	0.725	0.726	0.729	0.735	0.74	0.744	0.748

CN(C)C=O [dimethylformamide] + O
viscosity [mPa·s], [2]
Conditions	x1 = 0.05	x1 = 0.1	x1 = 0.15	x1 = 0.2
298.15 K	1.002	1.126	1.258	1.391
308.15 K	0.797	0.891	0.984	1.08

O=S(=O)([O-])[O-].[K+].[K+] [potassium sulfate] + O
viscosity [mPa·s], [1]
Conditions	m1 = 0.0081	m1 = 0.0099	m1 = 0.0201	m1 = 0.0402	m1 = 0.0599	m1 = 0.0802	m1 = 0.1
298.15 K	0.895	0.896	0.899	0.905	0.909	0.914	0.918
308.15 K	0.723	0.724	0.727	0.732	0.737	0.742	0.746

O [water]
[3]
Conditions	viscosity [mPa·s]
298.15 K	0.89
308.15 K	0.719
